Numbers after ± are expanded uncertainties.
Columns and labels:
[1] = Molar enthalpy of transition or fusion; conditions: Crystal; DSC
[2] = Crystal; DTA

Molar enthalpy of transition or fusion [1]: 9.1 ± 0.196 kcal/mol | Normal melting temperature [2]: 49.20 ± 1.1 °C
SMILES: CCCCCCCCCCCCCCCc1cccc(O)c1 [3-pentadecylphenol]

Reference: the NIST ThermoML archive (doi:10.1021/je900346t)
